Values joined by “and” are separate entries in the source; they are usually repeats but may differ in a detail not shown here. Equal values may be shown once.
Legend:
platelet (PLT) = experiment: Effect of single intravenous injection on platelet count in beagle dogs (Test Example 5); assay type: in vivo
Description: Method of administration: the weight was measured and the dosing amount was calculated based on the weight; the administration regimen is shown in Table 13 below. The drugs were slowly administered by intravenous injection. Blood was collected from the jugular vein or by other suitable means, about 1 mL per sample.

[1] = Pharmacokinetic study, single intravenous injection to rats (Test Example 1); assay type: in vivo, SD rats
Description: • (1) Preparation of docetaxel: commercially available docetaxel injection (0.5 mL:20 mg) was diluted to 4 mg/mL with normal saline; • (2) Preparation of other test compounds: the compounds were dissolved in DMSO with a final concentration of 5%, and the solutions were diluted to 4 mg/mL with normal saline.
Female SD rats, weighing 160-180 g, 6 weeks old, SPF
Plasma samples were separated, and the esterase inhibitor DDVP was added. The samples were stored at −80° C. and tested for docetaxel level (N=3).

[2] = Pharmacokinetic study, single intravenous injection to beagle dogs, docetaxel macromolecules (Test Example 2); assay type: in vivo; details: single IV 3 mg/kg, free docetaxel in plasma, mean (1 male + 1 female)
Description: Docetaxel (84 mg/vial, commercially available) was dissolved in 5% (final volume) DMSO+30% PEG300+5% Tween 80+60% deionized water to obtain 0.6 mg/mL formulations for intravenous injection.
Beagle dogs, non-naïve, sourced from Medicilon: 999M-004.
Method of administration: the weight was measured and the dosing amount was calculated based on the weight. The drugs were slowly administered by intravenous injection. Blood was collected from the jugular vein or by other suitable means, about 1 mL per sample. Plasma samples were collected before administration and at different time points after administration and tested for free docetaxel level in plasma. For the docetaxel group, collection was performed before administration and at 0.083 h, 0.5 h, 1 h, 2 h, 4 h, 6 h, 8 h and 24 h after administration.

[3] = tested on: human lung cancer cell A549; experiment: Antitumor effect in subcutaneous tumor graft model of human lung cancer cell A549 (Test Example 3); assay type: in vivo, BALB/C nude mice; details: for Tumor volume: i.v. QW × 4 doses, docetaxel 20, 1-Z00 20, 1-Z00-J 10 mg/kg
Description: Samples are prepared according to Table 5 below.
BALB/C nude mice, female, 6-7 week old (the age when tumor cell inoculation was performed), weighing 16.5-22.6 g, purchased from GemPharmatech Co., Ltd., certificate No. 320727210100243463. Housing environment: SPF.
A549 cells (National Collection of Authenticated Cell Cultures/Cell Bank of Shanghai Institutes for Biological Sciences (cellbank.org.cn, SIBS)) were cultured in an F12K medium (Gibco) containing 10% fetal bovine serum. Cells were collected when growing at the exponential phase and resuspended in PBS to a suitable concentration for use in subcutaneous tumor inoculation in mice.
5×10^6 A549 cells were subcutaneously inoculated into the right side of female mice (inoculation volume: 0.1 mL/mouse). The day of inoculation was defined as day 0. When the mean tumor volume was 142.96 mm^3 (on day 13 after cell inoculation), the mice were randomly grouped according to tumor size as shown in Table 6 below (dosing volume: 10 μL/g).
After tumor inoculation, routine monitoring items included the effect of tumor growth and treatment on the normal behavior of animals, including activity, food intake and water intake, weight gain or loss (body weight was measured twice a week), abnormalities in eyes, hair, etc. Clinical symptoms observed during the experiment were all recorded in the raw data. Tumor volume calculation formula: tumor volume (mm^3)=½×(a×b^2) (where a represents long diameter and b represents short diameter). In the experiment, data collection, including measurement of tumors' long and short diameters and animals' body weight, was performed using StudyDirector™ (version: 3.1.399.19; supplier: Studylog System, Inc., S. San Francisco, CA, USA) software. Raw data measured by scales and vernier calipers were directly imported into the software. Any changes in the data were recorded in the software.
When the body weight of an individual animal decreased by >20%, it was euthanized according to animal welfare.
Relative tumor proliferation rate, T/C (%), refers to the percentage value of the relative tumor volume or tumor weight of the treatment group and the control group at a certain time point. The calculation formula is: T/C %=TRTV/CRTV×100% (TRTV: mean RTV of treatment group; CRTV: mean RTV of control group; RTV=Vt/V0, V0 is the tumor volume of the animal at the time of grouping, and Vt is the tumor volume of the animal after treatment).
All the results are expressed as mean tumor volume±SEM (standard error of the mean). The best point of drug treatment (usually after the last administration) was selected for statistical analysis between different groups. A two-way ANOVA was used to determine whether there was a significant difference in tumor volume between a treatment group and the control group. p<0.05 indicates a significant difference. Statistical analysis and graphing were both performed in the R language environment (version 3.3.1). All tests were two-tailed unless otherwise specified. A p value less than 0.05 was considered statistically significant.

[4] = Hematological analysis (complete blood count) in the A549 subcutaneous tumor graft model (Test Example 3)
Description: After the last administration, plasma was collected at the time points designated in Table 7 (EDTA anticoagulant tubes were used (the esterase inhibitor DDVP was added at the time of blood collection)). After plasma collection at the last time point was complete, the mice were euthanized, and tumors were collected, snap frozen and stored.

[5] = female SD rats, single IV 10 mg/kg, docetaxel level in plasma, N=3
[6] = rat, female SD rats, single IV 10 mg/kg, docetaxel level in plasma, N=3
[7] = day 21 after administration began, docetaxel 20, 1-Z00 20, 1-Z00-J 10 mg/kg i.v. QW × 4
[8] = A549 tumor-bearing mice after last administration, docetaxel 20, 1-Z00 20, 1-Z00-J 10 mg/kg i.v., mean ± standard deviation

## O=C(NS(=O)(=O)c1ccc(N[C@@H](CSc2ccccc2)C[C@@H]2CCCN2CCO)c(S(=O)(=O)C(F)(F)F)c1)c1ccc(N2CCC([C@@H](O)c3ccccc3-c3ccc(Cl)cc3)CC2)cc1 [Compound 3]
Platelet (PLT); beagle dogs, 24 h after single IV 3 mg/kg, mean
  Day 2 (24 h after administration) PLT mean value: 34.00 10^9/L
Platelet (PLT); beagle dogs, before single IV 3 mg/kg (baseline), mean
  Day 1 (before administration) PLT mean value: 355.00 10^9/L
Platelet (PLT); beagle dogs, single IV 3 mg/kg
  Difference (%) between PLT count in dogs at 24 h after administration and that before administration: −90.42%
Platelet (PLT); beagle dogs, single IV 3 mg/kg, 3 dogs with compound 3, 2 dogs per dendrimer
  mortality (animals died): 2
Platelet (PLT); individual male beagle dog, 24 h after single IV 3 mg/kg
  Day 2 (24 h after administration) PLT: 34.00 10^9/L
Platelet (PLT); individual male beagle dog, before single IV 3 mg/kg (baseline)
  Day 1 (before administration) PLT: 355.00 10^9/L

## CC(=O)O[C@@]12CO[C@@H]1C[C@H](O)[C@@]1(C)C(=O)[C@H](O)C3=C(C)[C@@H](OC(=O)[C@H](O)[C@@H](NC(=O)OC(C)(C)C)c4ccccc4)C[C@@](O)([C@@H](OC(=O)c4ccccc4)[C@H]21)C3(C)C [Docetaxel]
[1]; [5]
  AUMC0-inf: 2663.5 h · h · ng · mL^−1
  AUMC0-t: 1669.3 h · h · ng · mL^−1
  Kel: 0.3 h⁻¹
  MRTIV: 1.8 h
[1]; [6]
  AUC(0-inf): 1480 ng·h/mL
  AUC(0-t): 1400 ng·h/mL
  C0: 2840 ng/mL
  Cmax: 1990 ng/mL
  clearance: 116 mL/min/kg
  half-life: 2.1 h
[1]; rat, female SD rats, single IV 10 mg/kg, docetaxel level in plasma, N=3, read-out: VdSS
  Vd: 12.1 L/kg
[1]; rats, IV 10 mg/kg
  sustained-release effect, exposure and clearance (conclusion in words): rapid plasma clearance and low exposure
[2]; both sexes, dog
  AUC(0-inf): 2040 ng·h/mL
  AUC(0-t): 1890 ng·h/mL
  clearance: 24.6 mL/min/kg
  half-life: 13.5 h
[2]; both sexes, dog, read-out: Vdss
  Vd: 7.39 L/kg
[2]
  AUMC0-inf: 10234 h·h·ng·mL^−1
  AUMC0-t: 3854 h·h·ng·mL^−1
  Kel: 0.0515 h⁻¹
  Mean residence time (MRT): 5.02 h
[3]; day 0 after administration began (baseline at grouping), mean ± standard error
  Tumor volume: 142.49 ± 6.17 mm^3
[3]; day 3 after administration began, mean ± standard error
  Tumor volume: 187.27 ± 18.12 mm^3
[3]; day 7 after administration began, mean ± standard error
  Tumor volume: 294.09 ± 32.19 mm^3
[3]; day 10 after administration began, mean ± standard error
  Tumor volume: 362.73 ± 41.13 mm^3
[3]; day 14 after administration began, mean ± standard error
  Tumor volume: 460.59 ± 68.72 mm^3
[3]; day 17 after administration began, mean ± standard error
  Tumor volume: 502.25 ± 84.97 mm^3
[3]; [7]
  T/C (relative tumor proliferation rate): 33.76%
  TGI (relative tumor inhibition): 66.24%
[3]; day 21 after administration began, docetaxel 20, 1-Z00 20, 1-Z00-J 10 mg/kg i.v. QW × 4, mean ± standard error
  Relative tumor volume: 3.87 ± 0.61
[3]; day 21 after administration began, mean ± standard error
  Tumor volume: 564.93 mm^3 and 564.93 ± 108.61 mm^3
[4]; 20 mg/kg i.v.
  decrease of white blood cells, lymphocytes and mononuclear cells compared to the vehicle control group (factor): 2-3
[4]; [8]
  Eosinophil EO#: 0.02 ± 0.02 10^9/L
  Lymphocyte LYMPH#: 1.58 ± 0.39 10^9/L
  Mononuclear cell MONO#: 0.11 ± 0.02 10^9/L
  Neutrophil NEUT#: 0.81 ± 0.47 10^9/L
  White blood cell count WBC: 2.52 ± 0.08 10^9/L
